The text below walks through data of ChEMBL document CHEMBL1138101, “Heteroaryl substituted bis-trifluoromethyl carbinols as malonyl-CoA decarboxylase inhibitors” (Bioorg Med Chem Lett, 2006).

For this assay, the target named is T1, Malonyl-CoA decarboxylase, mitochondrial (Homo sapiens, UniProt O95822).
T1 sequence (O95822 whole entry): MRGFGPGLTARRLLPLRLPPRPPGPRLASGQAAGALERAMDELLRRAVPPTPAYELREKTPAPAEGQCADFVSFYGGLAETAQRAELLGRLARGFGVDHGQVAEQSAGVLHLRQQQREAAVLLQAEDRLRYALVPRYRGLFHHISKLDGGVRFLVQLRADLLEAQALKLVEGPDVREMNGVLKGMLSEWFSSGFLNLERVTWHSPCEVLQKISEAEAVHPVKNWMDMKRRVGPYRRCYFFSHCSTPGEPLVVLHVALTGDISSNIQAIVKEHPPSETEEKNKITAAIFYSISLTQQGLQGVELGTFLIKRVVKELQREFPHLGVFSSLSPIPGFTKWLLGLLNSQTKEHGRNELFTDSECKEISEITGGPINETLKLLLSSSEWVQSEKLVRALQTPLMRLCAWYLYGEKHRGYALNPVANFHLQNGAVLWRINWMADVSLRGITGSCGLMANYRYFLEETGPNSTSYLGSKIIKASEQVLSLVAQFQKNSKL

On to `CC(C)C(=O)N(CC1CCCO1)c1ncc(C(O)(C(F)(F)F)C(F)(F)F)s1` (stereo unspecified), for which the IC50 was found to be 1580 nM. This lies in the single-digit micromolar range.

Broadly, the IC50 is the midpoint of a concentration-inhibition curve. Read a low IC50 as inhibition by little substance.
